Results taken from PubChem BioAssay (NCI).
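Results reflect a 48-hour exposure of cells in 96-well plates to compound at five concentrations. At the TGI there is no net growth.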

Assays:
Assay in all cases: NCI tumour cell line growth inhibition, 48 h
SK-MEL-2 melanoma = test system: SK-MEL-2 melanoma
HCT-15 colon = test system: HCT-15 colon
OVCAR-8 ovarian = test system: OVCAR-8 ovarian
HCT-116 colon = test system: HCT-116 colon
SW-620 colon = test system: SW-620 colon
SF-295 CNS = test system: SF-295 CNS
A498 renal = test system: A498 renal
UACC-257 melanoma = test system: UACC-257 melanoma
DLD-1 colon = test system: DLD-1 colon
MOLT-4 leukemia = test system: MOLT-4 leukemia
SF-268 CNS = test system: SF-268 CNS
M14 melanoma = test system: M14 melanoma
M19-MEL melanoma = test system: M19-MEL melanoma
786-0 renal = test system: 786-0 renal
K-562 leukemia = test system: K-562 leukemia
COLO 205 colon = test system: COLO 205 colon
A549 NSCLC = test system: A549 NSCLC
HCC-2998 colon = test system: HCC-2998 colon
TK-10 renal = test system: TK-10 renal
CCRF-CEM leukemia = test system: CCRF-CEM leukemia
SK-MEL-28 melanoma = test system: SK-MEL-28 melanoma
HOP-92 NSCLC = test system: HOP-92 NSCLC
NCI-H522 lung = test system: NCI-H522 lung
HOP-62 NSCLC = test system: HOP-62 NSCLC
ACHN renal = test system: ACHN renal
OVCAR-3 ovarian = test system: OVCAR-3 ovarian
SNB-78 CNS = test system: SNB-78 CNS
KM12 colon = test system: KM12 colon
SR leukemia = test system: SR leukemia
LXFL 529 NSCLC = test system: LXFL 529 NSCLC
EKVX NSCLC = test system: EKVX NSCLC
SN12C renal = test system: SN12C renal
NCI-H460 lung = test system: NCI-H460 lung
HL-60(TB) leukemia = test system: HL-60(TB) leukemia
RPMI-8226 leukemia = test system: RPMI-8226 leukemia
DMS 273 small cell lung = test system: DMS 273 small cell lung
KM20L2 colon = test system: KM20L2 colon
SK-OV-3 ovarian = test system: SK-OV-3 ovarian
SNB-19 CNS = test system: SNB-19 CNS
MALME-3M melanoma = test system: MALME-3M melanoma
SK-MEL-5 melanoma = test system: SK-MEL-5 melanoma
UACC-62 melanoma = test system: UACC-62 melanoma
SF-539 CNS = test system: SF-539 CNS
U251 CNS = test system: U251 CNS
RXF 393 renal = test system: RXF 393 renal
NCI-H23 lung = test system: NCI-H23 lung
LOX IMVI melanoma = test system: LOX IMVI melanoma
OVCAR-5 ovarian = test system: OVCAR-5 ovarian
UO-31 renal = test system: UO-31 renal
HOP-18 NSCLC = test system: HOP-18 NSCLC
DMS 114 small cell lung = test system: DMS 114 small cell lung
XF 498 CNS = test system: XF 498 CNS
CAKI-1 renal = test system: CAKI-1 renal
SNB-75 CNS = test system: SNB-75 CNS
HT29 colon = test system: HT29 colon
OVCAR-4 ovarian = test system: OVCAR-4 ovarian
NCI-H226 lung = test system: NCI-H226 lung
IGROV1 ovarian = test system: IGROV1 ovarian

Compound: O=C1C2=C(CCCC2)Nc2cccc3ncn1c23
- TGI (SK-MEL-2 melanoma): > 100 µM
- TGI (HCT-15 colon): > 100 µM
- TGI (OVCAR-8 ovarian): > 100 µM
- TGI (HCT-116 colon): > 100 µM
- TGI (SW-620 colon): > 100 µM
- TGI (SF-295 CNS): > 100 µM
- TGI (A498 renal): > 100 µM
- TGI (UACC-257 melanoma): > 100 µM
- TGI (DLD-1 colon): > 100 µM
- TGI (MOLT-4 leukemia): > 100 µM
- TGI (SF-268 CNS): > 100 µM
- TGI (M14 melanoma): > 100 µM
- TGI (M19-MEL melanoma): > 100 µM
- TGI (786-0 renal): > 100 µM
- TGI (K-562 leukemia): > 100 µM
- TGI (COLO 205 colon): > 100 µM
- TGI (A549 NSCLC): > 100 µM
- TGI (HCC-2998 colon): > 100 µM
- TGI (TK-10 renal): > 100 µM
- TGI (CCRF-CEM leukemia): > 100 µM
- TGI (SK-MEL-28 melanoma): > 100 µM
- TGI (HOP-92 NSCLC): > 100 µM
- TGI (NCI-H522 lung): > 100 µM
- TGI (HOP-62 NSCLC): > 100 µM
- TGI (ACHN renal): > 100 µM
- TGI (OVCAR-3 ovarian): > 100 µM
- TGI (SNB-78 CNS): > 100 µM
- TGI (KM12 colon): > 100 µM
- TGI (SR leukemia): > 100 µM
- TGI (LXFL 529 NSCLC): > 100 µM
- TGI (EKVX NSCLC): > 100 µM
- TGI (SN12C renal): > 100 µM
- TGI (NCI-H460 lung): > 100 µM
- TGI (HL-60(TB) leukemia): > 100 µM
- TGI (RPMI-8226 leukemia): > 100 µM
- TGI (DMS 273 small cell lung): > 100 µM
- TGI (KM20L2 colon): > 100 µM
- TGI (SK-OV-3 ovarian): > 100 µM
- TGI (SNB-19 CNS): > 100 µM
- TGI (MALME-3M melanoma): > 100 µM
- TGI (SK-MEL-5 melanoma): > 100 µM
- TGI (UACC-62 melanoma): > 100 µM
- TGI (SF-539 CNS): > 100 µM
- TGI (U251 CNS): > 100 µM
- TGI (RXF 393 renal): > 100 µM
- TGI (NCI-H23 lung): > 100 µM
- TGI (LOX IMVI melanoma): > 100 µM
- TGI (OVCAR-5 ovarian): > 100 µM
- TGI (UO-31 renal): > 100 µM
- TGI (HOP-18 NSCLC): > 100 µM
- TGI (DMS 114 small cell lung): > 100 µM

Compound: Cc1cc([N+](=O)[O-])c(C)c2c1[nH]c1ccc(O)cc12
- TGI (XF 498 CNS): > 100 µM
- TGI (SK-MEL-2 melanoma): > 100 µM
- TGI (HCT-15 colon): > 100 µM
- TGI (OVCAR-8 ovarian): > 100 µM
- TGI (HCT-116 colon): > 100 µM
- TGI (SW-620 colon): > 100 µM
- TGI (SF-295 CNS): > 100 µM
- TGI (UACC-257 melanoma): > 100 µM
- TGI (DLD-1 colon): 43.7 µM
- TGI (MOLT-4 leukemia): > 100 µM
- TGI (SF-268 CNS): > 100 µM
- TGI (M14 melanoma): > 100 µM
- TGI (M19-MEL melanoma): > 100 µM
- TGI (786-0 renal): > 100 µM
- TGI (K-562 leukemia): > 100 µM
- TGI (COLO 205 colon): > 100 µM
- TGI (A549 NSCLC): > 100 µM
- TGI (HCC-2998 colon): > 100 µM
- TGI (TK-10 renal): > 100 µM
- TGI (CCRF-CEM leukemia): > 100 µM
- TGI (CAKI-1 renal): > 100 µM
- TGI (SK-MEL-28 melanoma): > 100 µM
- TGI (HOP-62 NSCLC): > 100 µM
- TGI (ACHN renal): > 100 µM
- TGI (OVCAR-3 ovarian): > 100 µM
- TGI (SNB-78 CNS): > 100 µM
- TGI (KM12 colon): > 100 µM
- TGI (SR leukemia): > 100 µM
- TGI (EKVX NSCLC): > 100 µM
- TGI (SN12C renal): > 100 µM
- TGI (NCI-H460 lung): > 100 µM
- TGI (SNB-75 CNS): > 100 µM
- TGI (HL-60(TB) leukemia): 63 µM
- TGI (HT29 colon): > 100 µM
- TGI (RPMI-8226 leukemia): 79 µM
- TGI (DMS 273 small cell lung): > 100 µM
- TGI (SNB-19 CNS): > 100 µM
- TGI (MALME-3M melanoma): > 100 µM
- TGI (OVCAR-4 ovarian): > 100 µM
- TGI (SK-MEL-5 melanoma): > 100 µM
- TGI (SF-539 CNS): > 100 µM
- TGI (NCI-H23 lung): > 100 µM
- TGI (LOX IMVI melanoma): > 100 µM
- TGI (OVCAR-5 ovarian): > 100 µM
- TGI (UO-31 renal): > 100 µM
- TGI (HOP-18 NSCLC): > 100 µM
- TGI (DMS 114 small cell lung): > 100 µM
- TGI (NCI-H226 lung): > 100 µM

Compound: CCSc1nc(-c2ccc(OC)cc2)c(C#N)c(=O)n1C1OCC(OC(C)=O)C(OC(C)=O)C1OC(C)=O (stereo unspecified)
- TGI (SK-MEL-2 melanoma): > 100 µM
- TGI (HCT-15 colon): > 100 µM
- TGI (HCT-116 colon): > 100 µM
- TGI (SW-620 colon): > 100 µM
- TGI (SF-295 CNS): > 100 µM
- TGI (A498 renal): > 100 µM
- TGI (UACC-257 melanoma): > 100 µM
- TGI (DLD-1 colon): > 100 µM
- TGI (MOLT-4 leukemia): > 100 µM
- TGI (SF-268 CNS): > 100 µM
- TGI (M14 melanoma): > 100 µM
- TGI (M19-MEL melanoma): > 100 µM
- TGI (786-0 renal): > 100 µM
- TGI (K-562 leukemia): > 100 µM
- TGI (COLO 205 colon): > 100 µM
- TGI (A549 NSCLC): > 100 µM
- TGI (HCC-2998 colon): > 100 µM
- TGI (TK-10 renal): > 100 µM
- TGI (CAKI-1 renal): > 100 µM
- TGI (SK-MEL-28 melanoma): > 100 µM
- TGI (HOP-92 NSCLC): > 100 µM
- TGI (NCI-H522 lung): > 100 µM
- TGI (HOP-62 NSCLC): > 100 µM
- TGI (ACHN renal): > 100 µM
- TGI (SNB-78 CNS): > 100 µM
- TGI (IGROV1 ovarian): > 100 µM
- TGI (KM12 colon): > 100 µM
- TGI (SR leukemia): > 100 µM
- TGI (LXFL 529 NSCLC): > 100 µM
- TGI (EKVX NSCLC): > 100 µM
- TGI (SN12C renal): > 100 µM
- TGI (NCI-H460 lung): > 100 µM
- TGI (SNB-75 CNS): > 100 µM
- TGI (HT29 colon): > 100 µM
- TGI (RPMI-8226 leukemia): > 100 µM
- TGI (DMS 273 small cell lung): > 100 µM
- TGI (KM20L2 colon): > 100 µM
- TGI (SK-OV-3 ovarian): > 100 µM
- TGI (SNB-19 CNS): > 100 µM
- TGI (MALME-3M melanoma): > 100 µM
- TGI (OVCAR-4 ovarian): > 100 µM
- TGI (SK-MEL-5 melanoma): > 100 µM
- TGI (UACC-62 melanoma): > 100 µM
- TGI (SF-539 CNS): > 100 µM
- TGI (U251 CNS): > 100 µM
- TGI (RXF 393 renal): > 100 µM
- TGI (NCI-H23 lung): > 100 µM
- TGI (OVCAR-5 ovarian): > 100 µM
- TGI (UO-31 renal): > 100 µM
- TGI (HOP-18 NSCLC): > 100 µM
- TGI (DMS 114 small cell lung): > 100 µM
- TGI (NCI-H226 lung): > 100 µM
